Like-named read-outs stand apart in the source and are kept apart here.
Legend:
Assay type in all cases: cell-based
OVCAR8 cells = assay: Cell proliferation PAD assay, OVCAR8; conditions: Homo sapiens, OVCAR-8, 6pt, 48 hours
Method: (§1) Cell lines used are available from American Type Culture Collection (ATCC), for example, cell cultures containing A549 (ATCC# CCL-185), HeLa (ATCC# CCL-2), HCT116 ATTC# CCL-247), and H1299 (ATCC# CRL-5803) cells were maintained in T175 flasks following the ATCC recommended media and handling procedures. […] A 20,000 cells/ml solution was made for plating. Cells were plated in black Packard 96 well plates by placing 100 μl per well (2,000 cells per well). […] The definitions of the cell types used are as follows: A549 is lung carcinoma; HI 299 is non-small cell lung carcinoma; HI 155 is non-small cell lung carcinoma; AsPC-1 is pancreatic adenocarcinoma; Caov-3 is ovarian adenocarcinoma; COLO 205 is colorectal adenocarcinoma; DLD-1 colorectal adenocarcinoma; HCT116 is colorectal carcinoma; DU 145 is prostate carcinoma; ES-2 is ovarian clear cell carcinoma; H460 is large cell lung carcinoma; HELA is cervical adenocarcinoma; MIA PaCa-2 is pancreatice carcinoma; OVCAR-3 is ovarian adenocarcinoma; OVCAR8 is ovarian carcinoma; PC3 is prostate adenocarcinoma; SK-OV-3 is ovarian adenocarcinoma; SU86.86 is pancreatic carcinoma; TOV-21G is avarian clear cell carcinoma; U2OS is bone osteosarcoma; is ASPC-I is pancreatic adenocarcinoma; BXPC-3 is pabcreatic adenocarcinoma; HL60 is promyeloblast promyelocytic leukemia; K562 is bone marrow chronic myelogenous leukemia; L1210 is mouse lymphocytic leukemia; MOLT3 is T lymphoblast acute lymphoblastic leukemia; MOLT4 is T lymphoblast acute lymphoblastic leukemia; SW620 is colorectal adenocarcinoma; THP-1 is monocyte acute monocytic leukemia; U937 is histiocytic lymphoma; and UACC-257 is melanoma.
(§2) Compounds and additional media were added 24 hours after cell plating. […] All compound testing was done in duplicate using 6.3 fold dilutions starting with 10 mM. […] Taxol and at least one additional control were run on all plates. Three microliters of the compound master plate were added to deep well blocks containing 750 μl of RPMI media. One hundred microliters were transferred from the compound/media deep well blocks to the plated cells resulting in a 500 fold dilution of the compounds. Cells were grown at 37° C., 5% CO2 for 48 hours.
(§3) Cells to be analyzed by photography were fixed and stained. One hundred microliters of media were removed and 100 μl of 9.3% formamide was added to each well. Plates were left on the benchtop for 45 minutes. A staining solution containing 1.55 μl of 1 mg/ml DAPI added to 18.75 ml PBS was warmed for 15 minutes at 37° C. The cells were aspirated prior to washing with 100 μl of PBS. Seventy microliters of PBS were aspirated and 170 μl of the DAPI solution were added to each well of fixed cells. Plates were left at room temperature for one hour then aspirated and washed twice with 100 μl of PBS. The stained cells were left at 4° C. for a minimum of 16 hours before photographic analysis with Array Scan II (Cellomics). Analysis of the photographic images to determine numbers of live cells (proliferation), apoptotic cells and dead cells, were according to the methods described in U.S. Utility patent application Ser. No. 10/652,440, which incorporated herein in its entirety.

UACC-257 cells = assay: Cell proliferation PAD assay, UACC-257; conditions: Homo sapiens, UACC257 cells, 6pt, 48 hours
Method: as §1, §2, §3

HELA cells = assay: Cell proliferation PAD assay, HeLa; conditions: Homo sapiens, 6pt, 48 hours
Description: (§4) Table 3 illustrates the inhibitory activity of the compounds of the invention determined by the PAD assay described above in a number of cell types. Apoptosis was not
as §1
(§5) Compounds and additional media were added 24 hours after cell plating. A compound master plate was created with concentrations 500 times greater than the final concentration added to the cells. All compound testing was done in duplicate using 6.3 fold dilutions starting with 10 mM. All outside wells (and 4 internal wells) were DMSO controls. Taxol and at least one additional control were run on all plates. Three microliters of the compound master plate were added to deep well blocks containing 750 μl of RPMI media. One hundred microliters were transferred from the compound/media deep well blocks to the plated cells resulting in a 500 fold dilution of the compounds. Cells were grown at 37° C., 5% CO2 for 48 hours.
as §3

HCT116 cells = assay: Cell proliferation PAD assay, HCT116; conditions: Homo sapiens, 48 hours
Description: as §4, §1, §5, §3

U2OS cells = assay: Cell proliferation PAD assay, U2OS; conditions: Homo sapiens, 6pt, 48 hours
Description: as §4, §1, §5, §3

DLD-1 cells = assay: Cell proliferation PAD assay, DLD-1; conditions: Homo sapiens, DLD1 cells, 6pt, 48 hours
Description: as §4, §1, §5, §3

[1] = HCT-116, 6pt, read-out: HCT116 6pt

Row | Structure (SMILES) | IC50 (OVCAR8 cells) | IC50 (U2OS cells) | IC50 (UACC-257 cells) | also measured
1 | CC1CC(C)CN(c2ccc([N+](=O)[O-])c3nonc23)C1 (centres unmarked) [compound 144, 4-(3,5-dimethylpiperidin-1-yl)-7-nitro-2,1,3-benzoxadiazole] | ≥ 20 µM | – | ≥ 20 µM | –
2 | CC1(C)CCN(S(=O)(=O)c2c(Cl)ccc3nonc23)CC1 [compound 245, 5-chloro-4-[(4,4-dimethylpiperidin-1-yl)sulfonyl]-2,1,3-benzoxadiazole] | – | – | – | IC50 (HELA cells): ≥ 20 µM; IC50 (HCT116 cells; HCT-116, 9pt, read-out: HCT116 9pt): < 1 µM
3 | COC(=O)c1ccc(NS(=O)(=O)c2ccc(F)c3nonc23)cc1 [compound 167, methyl 4-{[(7-fluoro-2,1,3-benzoxadiazol-4-yl)sulfonyl]amino}benzoate] | – | < 1 µM | – | –
4 | O=[N+]([O-])c1ccc(N2CCC(O)(c3ccc(Cl)cc3)CC2)c2nonc12 [compound 159, 4-(4-chlorophenyl)-1-(7-nitro-2,1,3-benzoxadiazol-4-yl)piperidin-4-ol] | 1 to 20 µM | – | ≥ 20 µM | –
5 | O=[N+]([O-])c1ccc(SCCO)c2nonc12 [compound 150, 2-[(7-nitro-2,1,3-benzoxadiazol-4-yl)thio]ethanol] | – | < 1 µM | – | IC50 (DLD-1 cells): < 1 µM; IC50 (HELA cells): < 1 µM; IC50 (HCT116 cells; [1]): < 1 µM
6 | O=[N+]([O-])c1ccc(Sc2nc3ccccc3s2)c2nonc12 [compound 158, 4-(1,3-benzothiazol-2-ylthio)-7-nitro-2,1,3-benzoxadiazole] | 1 to 20 µM | – | 1 to 20 µM | –
7 | O=[N+]([O-])c1ccc(Oc2ccc(S(=O)(=O)Nc3cccc4nonc34)cc2Cl)c(C(F)(F)F)c1 [compound 114, N-2,1,3-benzoxadiazol-4-yl-3-chloro-4-[4-nitro-2-(trifluoromethyl)phenoxy]benzenesulfonamide] | 1 to 20 µM | – | 1 to 20 µM | –
8 | N#CC1(c2ccccc2)CCN(c2ccc([N+](=O)[O-])c3nonc23)CC1 [compound 141, 1-(7-nitro-2,1,3-benzoxadiazol-4-yl)-4-phenylpiperidine-4-carbonitrile] | ≥ 20 µM | – | ≥ 20 µM | –
9 | Cc1ccc(Cl)cc1N1CCN(c2ccc([N+](=O)[O-])c3nonc23)CC1 [compound 145, 4-[4-(5-chloro-2-methylphenyl)piperazin-1-yl]-7-nitro-2,1,3-benzoxadiazole] | ≥ 20 µM | – | ≥ 20 µM | –
10 | O=[N+]([O-])c1ccc(N2CCN(c3cc(C(F)(F)F)ccn3)CC2)c2nonc12 [compound 90, 4-nitro-7-{4-[4-(trifluoromethyl)pyridin-2-yl]piperazin-1-yl}-2,1,3-benzoxadiazole] | ≥ 20 µM | – | ≥ 20 µM | –
11 | O=C(c1ccc(F)cc1)C1CCN(c2ccc([N+](=O)[O-])c3nonc23)CC1 [compound 142, (4-fluorophenyl)[1-(7-nitro-2,1,3-benzoxadiazol-4-yl)piperidin-4-yl]methanone] | 1 to 20 µM | – | 1 to 20 µM | –

Second part, led by results:

Row | IC50 (OVCAR8 cells) | IC50 (U2OS cells) | Structure (SMILES) | IC50 (UACC-257 cells) | also measured
12 | ≥ 20 µM | – | CCOC(=O)c1cc(C#N)c(C)nc1N1CCN(c2ccc([N+](=O)[O-])c3nonc23)CC1 [compound 153, ethyl 5-cyano-6-methyl-2-[4-(7-nitro-2,1,3-benzoxadiazol-4-yl)piperazin-1-yl]nicotinate] | ≥ 20 µM | –
13 | – | < 1 µM | CC(=O)N1CCN(S(=O)(=O)c2c(Cl)ccc3nonc23)CC1 [compound 201, 4-[(4-acetylpiperazin-1-yl)sulfonyl]-5-chloro-2,1,3-benzoxadiazole] | – | –
14 | 1 to 20 µM | – | O=[N+]([O-])c1ccc(N2CCN(c3ncc(C(F)(F)F)cc3Cl)CC2)c2nonc12 [compound 315, 4-{4-[3-chloro-5-(trifluoromethyl)pyrindin-2-yl]piperazin-1-yl}-7-nitro-2,1,3-benzoxadiazole] | ≥ 20 µM | –
15 | 1 to 20 µM | – | O=[N+]([O-])c1ccc(N2CCN(c3ccc(O)cc3)CC2)c2nonc12 [compound 146, 4-[4-(7-nitro-2,1,3-benzoxadiazol-4-yl)piperazin-1-yl]phenol] | 1 to 20 µM | –
16 | 1 to 20 µM | – | O=S(=O)(Nc1cccc2nonc12)c1ccc(Oc2ncc(C(F)(F)F)cc2Cl)cc1 [compound 78, N-2,1,3-benzoxadiazol-4-yl-4-{[3-chloro-5-(trifluoromethyl)pyridin-2-yl]oxy}benzenesulfonamide] | 1 to 20 µM | –
17 | – | 1 to 20 µM | O=S(=O)(Nc1ccc2cn[nH]c2c1)c1ccc(Cl)c2nonc12 [compound 220, 7-chloro-N-1 H-indazol-6-yl-2,1,3-benzoxadiazole-4-sulfonamide] | – | IC50 (DLD-1 cells): 1 to 20 µM; IC50 (HELA cells): 1 to 20 µM; IC50 (HCT116 cells; [1]): 1 to 20 µM
18 | – | < 1 µM | O=S(=O)(Oc1ccc(N2CCN(S(=O)(=O)c3ccc(Cl)c4nonc34)CC2)cc1)c1ccc(Cl)c2nonc12 [compound 171, 4-{4-[(7-chloro-2,1,3-benzoxadiazol-4-yl)sulfonyl]piperazin-1-yl}phenyl 7-chloro-2,1,3-benzoxadiazole-4-sulfonate] | – | –
19 | ≥ 20 µM | – | O=[N+]([O-])c1ccc(Oc2c(Cl)cc(S(=O)(=O)Nc3cccc4nsnc34)cc2Cl)c(Cl)c1 [compound 73, N-2,1,3-benzothiadiazol-4-yl-3,5-dichloro-4-(2-chloro-4-nitrophenoxy)benzenesulfonamide] | ≥ 20 µM | –
20 | 1 to 20 µM | – | Cc1ccc(N2CCN(c3ccc([N+](=O)[O-])c4nonc34)CC2)cc1C [compound 140, 4-[4-(3,4-dimethylphenyl)piperazin-1-yl]-7-nitro-2,1,3-benzoxadiazole] | 1 to 20 µM | –
21 | – | < 1 µM | Cc1cc(C)cc(-c2ccc([N+](=O)[O-])c3nonc23)c1 [compound 286, 4-(3,5-Dimethylphenyl)-7-nitro-2,1,3-benzoxadiazole] | – | IC50 (DLD-1 cells): 1 to 20 µM; IC50 (HELA cells): 1 to 20 µM; IC50 (HCT116 cells; [1]): < 1 µM
22 | < 1 µM | – | O=[N+]([O-])c1ccc(Sc2cccc3cccnc23)c2nonc12 [compound 5, 8-[(7-Nitro-2,1,3-benzoxadiazol-4-yl)thio]quinoline] | < 1 µM | –
23 | – | < 1 µM | COC(=O)c1ccc(NS(=O)(=O)c2c(Cl)ccc3nonc23)cc1 [compound 178, methyl 4-{[(5-chloro-2,1,3-benzoxadiazol-4-yl)sulfonyl]amino}benzoate] | – | IC50 (DLD-1 cells): < 1 µM; IC50 (HELA cells): < 1 µM; IC50 (HCT116 cells; [1]): < 1 µM
24 | 1 to 20 µM | – | O=[N+]([O-])c1ccc(N2CCN(c3ncccc3C(F)(F)F)CC2)c2nonc12 [compound 148, 4-nitro-7-{4-[3-(trifluoromethyl)pyridin-2-yl]piperazin-1-yl}-2,1,3-benzoxadiazole] | 1 to 20 µM | –
25 | 1 to 20 µM | – | O=S(=O)(Nc1cccc2nsnc12)c1ccc(Oc2ccccc2)cc1 [compound 94, N-2,1,3-benzothiadiazol-4-yl-4-phenoxybenzenesulfonamide] | 1 to 20 µM | –
26 | – | < 1 µM | O=c1[nH]c2ccccc2n1C1CCN(S(=O)(=O)c2ccc(Cl)c3nonc23)CC1 [compound 188, 1-{1-[(7-chloro-2,1,3-benzoxadiazol-4-yl)sulfonyl]piperidin-4-yl}-1,3-dihydro-2H-benzimidazol-2-one] | – | –

— patent US20050282818A1, “Ubiquitin ligase inhibitors” (Rigel Pharmaceuticals, Inc., priority 2004, published 2005)
